The text below walks through data of patent publication US7772245B2, “Inhibitors of histone deacetylase” (Miikana Therapeutics, Inc., priority 2005, dated 2010).

One assay deals with HDAC. The assay is described as follows: In vitro fluorescent histone deacetylase assay (Biomol HDAC fluorescent activity kit, HeLa cell nuclear extract). In kind it is biochemical. The note with it: 100 μM compound; HeLa cell nuclear extract as source of HDAC activity; 50 μM substrate, 10 min at room temperature. Here is the method:
Histone deacetylase (HDAC) activity assays were performed using the HDAC fluorescent activity assay/drug discovery kit (Biomol Research Laboratories, Plymouth Meeting, Pa.) essentially according to the manufacturer's instructions. The included HeLa cell nuclear extract, which contains a mosaic of HDAC enzymes and other nuclear factors, was used as the source of HDAC activity. The final substrate concentration in the assay mixture was 50 μM. The reaction was allowed to proceed for 10 min at room temperature before stopping the reaction. Test compounds were prepared as 20 mM stock solutions in DMSO (Molecular Biology grade, Sigma-Aldrich Co., St. Louis, Mo.) and stored at −70° C. Serial dilutions of test compounds were prepared in assay buffer immediately prior to testing. DMSO was determined in a separate trial to have no significant effect on the activity of this assay at concentrations up to 5%; the final DMSO concentration in the wells was no more than 2% and therefore DMSO effects were safely neglected. Assays were performed in white polystyrene 96-well half-area assay plates (Corning, Corning, N.Y.) and measured on a Wallace 1420 fluorescent plate reader (Wallac Oy, Turku, Finland) with an excitation wavelength of 355 nm, an emission wavelength of 460 nm, and a 1 sec signal averaging time.

In another assay the test system is HCT116 cells. The assay is described as follows: Whole cell cytotoxicity assay: Sulforhodamine B. In kind it is cell-based. The note with it: Homo sapiens, HCT-116; 100 μM compound; 48 hours incubation with drug; Sulforhodamine B staining; read-out: % Inhibition of HCT116 cell growth @ 100 μM. How it is done: [The source words this procedure for another cell line and reports this cell line under the same test.] The following procedure can be found on the Developmental Therapeutics Program NCl/NIH web site at http://dtp.nci.nih.gov/brancehes/btb/ivclsp.html. • 1. Human tumor cell lines of HT29, A549 and MCF7 are grown in DMEM containing 10% fetal bovine serum and 2 mM L-glutamine. Cells are plated in a 96 well plate at a density of 5000 cells per well in 100 μL of growth medium and incubated at 37° C., 5% CO2, for 24 hours prior to the addition of experimental compounds. • 2. Experimental drugs are solubilized in DMSO for a final concentration of 20 mM immediately prior to use. Drugs are further diluted in growth media for a total of nine drug concentrations and a growth control. At the 24 hour time point, one plate of cells is fixed in situ with TCA as a measurement of the cell population at time zero, or the time of drug addition. • 3. The plates are further incubated with drug for an additional 48 hours. • 4. The cells are fixed in situ by gently aspirating off the culture media and then adding 50 μL of ice cold 10% TCA per well and incubated at 4° C. for 60 minutes. The plates are washed with tap water five times and allowed to air dry for 5 minute. • 5. 50 μL of a 0.4% (w/v) Sulforhodamine B solution in 1% (v/v) acetic acid is added per well and incubated for 30 minutes at room temperature. • 6. Following staining, plates are washed five times with 1% acetic acid to remove any unbound dye and then allowed to air dry for 5 minutes. • 7. Stain is solubilized with 100 μL of 10 mM Tris pH 10.5 per well and placed on an orbital rotator for 5 minutes. • 8. Absorbance is read at 570 nm.

On to `Cc1ccc2[nH]c3c(c2c1Cl)CN(c1ncc(C(=O)NO)cn1)CC3` [Example 54, N-hydroxy-2-(9-chloro-8-methyl-1,3,4,5-tetrahydro-2H-pyrido[4,3-b]indol-2-yl)pyrimidine-5-carboxamide], for which the “% Inhibition of HDAC @ 100 μM” value with HDAC is on record as 99.5%. In the assay on HCT116 cells, the inhibition at 100 µM turned out to be 98.9%.
For `O=C(NO)c1cnc(N2CCc3[nH]c4ccccc4c(=O)c3C2)nc1` [Example 122, N-hydroxy-2-(10-oxo-3,4,5,10-tetrahydrobenzo[b]-1,6-naphthyridin-2(1H)-yl)pyrimidine-5-carboxamide], the “% Inhibition of HDAC @ 100 μM” value in the assay with HDAC was determined as 100%. The inhibition at 100 µM in the assay with HCT116 cells amounted to 44.4%.
Regarding `O=C(NO)c1cnc(N2CCc3[nH]c4ccc(-c5ccc(CO)cc5)cc4c3C2)nc1` [Example 107, N-hydroxy-2-{8-[4-(hydroxymethyl)phenyl]-1,3,4,5-tetrahydro-2H-pyrido[4,3-b]indol-2-yl}pyrimidine-5-carboxamide], the “% Inhibition of HDAC @ 100 μM” value in the assay on HDAC was determined as 99.9%. Besides, in the assay on HCT116 cells, the inhibition at 100 µM turned out to be 92.7%.
`Cc1ccc2[nH]c3c(c2c1)CCN(c1ncc(C(=O)NO)cn1)C3` [Example 68, N-hydroxy-2-(6-methyl-1,3,4,9-tetrahydro-2H-b-carbolin-2-yl)pyrimidine-5-carboxamide]: the “% Inhibition of HDAC @ 100 μM” value in the assay on HDAC was determined as 99.9%. Moreover, the inhibition at 100 µM with HCT116 cells turned out to be 98.9%.
Take `O=C(NO)c1cnc(N2CCc3c([nH]c4ccc(-c5cccc(CN6CCOCC6)c5)cc34)C2)nc1` [Example 70, N-hydroxy-2-{6-[3-(morpholin-4-ylmethyl)phenyl]-1,3,4,9-tetrahydro-2H-b-carbolin-2-yl}pyrimidine-5-carboxamide]: the “% Inhibition of HDAC @ 100 μM” value with HDAC turned out to be 99.9%. Further, the inhibition at 100 µM with HCT116 cells is 97.9%.
As for `O=C(NO)c1cnc(N2CCc3[nH]c4ccc(-c5cccc(CN6CCNCC6)c5)cc4c3C2)nc1` [Example 99, N-hydroxy-2-{8-[3-(piperazin-1-ylmethyl)phenyl]-1,3,4,5-tetrahydro-2H-pyrido[4,3-b]indol-2-yl}pyrimidine-5-carboxamide], the “% Inhibition of HDAC @ 100 μM” value in the assay on HDAC came to 99.9%. Moreover, the inhibition at 100 µM in the assay with HCT116 cells was 93.8%.
Take `O=C(/C=C/c1cnc(N2CCc3c([nH]c4ccccc34)C2)nc1)NO` [Example 20, (2E)-N-hydroxy-3-[2-(1,3,4,9-tetrahydro-2H-b-carbolin-2-yl)pyrimidin-5-yl]acrylamide]: in the assay on HDAC, the “% Inhibition of HDAC @ 100 μM” value is reported as 99.6%. In addition, the inhibition at 100 µM with HCT116 cells is 98.2%.
For `O=C(NO)c1cnc(N2CCc3[nH]c4ccc(-c5ccc(CN6CCOCC6)o5)cc4c3C2)nc1` [Example 109, N-hydroxy-2-{8-[5-(morpholin-4-yl)methyl-2-furyl]-1,3,4,5-tetrahydro-2H-pyrido[4,3-b]indol-2-yl}pyrimidine-5-carboxamide], the “% Inhibition of HDAC @ 100 μM” value with HDAC came to 100%. In addition, the inhibition at 100 µM with HCT116 cells turned out to be 91.7%.
The matching figures for `O=C(NO)c1cnc(N2CCc3[nH]c4ccc(-c5cccc(F)c5)cc4c3C2)nc1` [Example 44, N-hydroxy-2-{8-[3-fluorophenyl]-1,3,4,5-tetrahydro-2H-pyrido[4,3-b]indol-2-yl}pyrimidine-5-carboxamide]: 99.9% and 97.6%.
For the compound `O=C(NO)c1cnc(N2CCc3c(oc4ccccc34)C2)nc1` [Example 119, 2-(3,4-dihydro[1]benzofuro[2,3-c]pyridin-2(1)-yl)-N-hydroxypyrimidine-5-carboxamide], the “% Inhibition of HDAC @ 100 μM” value in the assay on HDAC is given as 99.3%. Besides, in the assay with HCT116 cells, the inhibition at 100 µM is 98.6%.
Take `O=C(NO)c1cnc(N2CCc3[nH]c4ccc(-c5cccc(CN6CCCCC6)c5)cc4c3C2)nc1` [Example 91, N-hydroxy-2-{8-[3-(piperidin-1-ylmethyl)phenyl]-1,3,4,5-tetrahydro-2H-pyrido[4,3-b]indol-2-yl}pyrimidine-5-carboxamide]: the “% Inhibition of HDAC @ 100 μM” value with HDAC turned out to be 100%. Besides, the inhibition at 100 µM in the assay with HCT116 cells is 98.6%.
On to `CN1CCN(Cc2ccccc2-c2ccc3[nH]c4c(c3c2)CCN(c2ncc(C(=O)NO)cn2)C4)CC1` [Example 73, N-hydroxy-2-{6-[2-((4-methylpiperazin-1-yl)methyl)phenyl]-1,3,4,9-tetrahydro-2H-b-carbolin-2-yl}pyrimidine-5-carboxamide], for which the “% Inhibition of HDAC @ 100 μM” value in the assay with HDAC is given as 99.6%. In addition, the inhibition at 100 µM with HCT116 cells was 99.4%.
Consider `O=C(NO)c1cnc(N2CCc3[nH]c4ccc(-c5ccc(F)cc5)cc4c3C2)nc1` [Example 45, N-hydroxy-2-{8-[4-fluorophenyl]-1,3,4,5-tetrahydro-2H-pyrido[4,3-b]indol-2-yl}pyrimidine-5-carboxamide], for which the “% Inhibition of HDAC @ 100 μM” value in the assay with HDAC is 99.9%. For the same compound, the inhibition at 100 µM in the assay on HCT116 cells worked out at 98.9%.
As for `CN1CCN(Cc2cccc(-c3ccc4[nH]c5c(c4c3)CN(c3ncc(C(=O)NO)cn3)CC5)c2)CC1` [Example 96, N-hydroxy-2-{8-[3-((4-methylpiperazin-1-yl)methyl)phenyl]-1,3,4,5-tetrahydro-2H-pyrido[4,3-b]indol-2-yl}pyrimidine-5-carboxamide], in the assay with HDAC, the “% Inhibition of HDAC @ 100 μM” value is given as 100%. The inhibition at 100 µM with HCT116 cells turned out to be 98.7%.
Take `O=C(NO)c1cnc(N2CCc3c(n(CCN4CCCC4)c4ccccc34)C2)nc1` [Example 23, N-hydroxy-2-{9-[2-pyrrolidin-1-ylethyl]-1,3,4,9-tetrahydro-2H-b-carbolin-2-yl}pyrimidine-5-carboxamide]: in the assay on HDAC, the “% Inhibition of HDAC @ 100 μM” value is listed as 99.3%. In addition, in the assay on HCT116 cells, the inhibition at 100 µM turned out to be 98.1%.
Turning to `O=C(NO)c1cnc(N2CCc3[nH]c4cc(F)ccc4c3C2)nc1` [Example 35, N-hydroxy-2-(7-fluoro-1,3,4,5-tetrahydro-2H-pyrido[4,3-b]indol-2-yl)pyrimidine-5-carboxamide], the “% Inhibition of HDAC @ 100 μM” value in the assay on HDAC is given as 99.9%. In the assay with HCT116 cells, the inhibition at 100 µM was found to be 97.3%.
The matching figures for `O=C(/C=C/c1ccc(N2CCc3c([nH]c4ccccc34)C2)cc1)NO` [Example 22, (2E)-N-hydroxy-3-[4-(1,3,4,9-tetrahydro-2H-b-carbolin-2-yl)phenyl]acrylamide]: 98.2% and 98.2%.
Turning to `O=C(NO)c1cnc(N2CCc3[nH]c4ccc(OC(F)(F)F)cc4c3C2)nc1` [Example 16, N-hydroxy-2-[8-(trifluoromethoxy)-1,3,4,5-tetrahydro-2H-pyrido[4,3-b]indol-2-yl]pyrimidine-5-carboxamide], in the assay on HDAC, the “% Inhibition of HDAC @ 100 μM” value was 98.9%. In addition, in the assay on HCT116 cells, the inhibition at 100 µM is 99%.
Regarding `O=C(NO)c1cnc(N2CCc3[nH]c4ccc(-c5ccco5)cc4c3C2)nc1` [Example 46, N-hydroxy-2-{8-(fur-2-yl)-1,3,4,5-tetrahydro-2H-pyrido[4,3-b]indol-2-yl}pyrimidine-5-carboxamide], the “% Inhibition of HDAC @ 100 μM” value with HDAC worked out at 99.8%. The inhibition at 100 µM in the assay with HCT116 cells was 98.6%.
As for `COc1ccc2[nH]c3c(c2c1)CCN(c1ncc(C(=O)NO)cn1)CC3` [Example 113, N-hydroxy-2-(9-methoxy-1,4,5,6-tetrahydroazepino[4,5-b]indol-3(2H)-1-yl)pyrimidine-5-carboxamide], the “% Inhibition of HDAC @ 100 μM” value in the assay on HDAC is on record as 100%. The inhibition at 100 µM in the assay with HCT116 cells was 98.7%.
For `O=C(NO)c1cnc(N2CCc3c([nH]c4ccc(F)cc34)C2)nc1` [Example 63, N-hydroxy-2-(6-fluoro-1,3,4,9-tetrahydro-2H-b-carbolin-2-yl)pyrimidine-5-carboxamide] the same measures were 99.8% and 98.9%.
Turning to `CN1CCCC(n2c3c(c4ccccc42)CCN(c2ncc(C(=O)NO)cn2)C3)C1` (stereo not shown) [Example 59, N-hydroxy-2-[9-(1-methylpiperidin-3-yl)-1,3,4,9-tetrahydro-2H-b-carbolin-2-yl]pyrimidine-5-carboxamide], in the assay on HDAC, the “% Inhibition of HDAC @ 100 μM” value was 97.3%. The inhibition at 100 µM in the assay on HCT116 cells amounted to 97.5%.
As to `O=C(NO)c1cnc(N2CCc3[nH]c4ccc(-c5cccc(-c6nnn[nH]6)c5)cc4c3C2)nc1` [Example 84, N-hydroxy-2-{8-[3-(1H-tetrazol-5-yl)phenyl]-1,3,4,5-tetrahydro-2H-pyrido[4,3-b]indol-2-yl}pyrimidine-5-carboxamide], the “% Inhibition of HDAC @ 100 μM” value in the assay with HDAC worked out at 99.9%. Also, the inhibition at 100 µM in the assay on HCT116 cells turned out to be 93.2%.
